Source: ChEMBL document CHEMBL1938350, “Recent progress in biological activities of synthesized phenothiazines” (Eur J Med Chem, 2011)
Values after ≈ are worked out from the molar mass of the structure shown.

Legend:
[1] = tested on: Trichophyton mentagrophytes; experiment: Antifungal activity against Trichophyton mentagrophytes; type: functional
[2] = tested on: Saccharomyces cerevisiae; experiment: Antifungal activity against Saccharomyces cerevisiae; type: functional
[3] = Cytotoxicity against human colon cancer cells; type: functional; settings: Cancer cell lines, read-out: LC50 (the source's name)
[4] = Cytotoxicity against human leukemia cells; type: functional; settings: Leukemia cell
[5] = tested on: WI-38; experiment: Antimitotic activity against human non-transformed WI38 cells assessed as cell viability at 5 uM after 1 day; type: functional; settings: WI-38, 24 h, read-out: Activity
[6] = biological target: T1, Kinesin-like protein KIF11 (Homo sapiens, UniProt P52732); experiment: Inhibition of mitotic kinesin Eg5 in human transformed WI38VA13 cells assessed as inhibition of microtubule-activated ATPase activity; type: cell-based
T1 sequence (P52732 whole entry): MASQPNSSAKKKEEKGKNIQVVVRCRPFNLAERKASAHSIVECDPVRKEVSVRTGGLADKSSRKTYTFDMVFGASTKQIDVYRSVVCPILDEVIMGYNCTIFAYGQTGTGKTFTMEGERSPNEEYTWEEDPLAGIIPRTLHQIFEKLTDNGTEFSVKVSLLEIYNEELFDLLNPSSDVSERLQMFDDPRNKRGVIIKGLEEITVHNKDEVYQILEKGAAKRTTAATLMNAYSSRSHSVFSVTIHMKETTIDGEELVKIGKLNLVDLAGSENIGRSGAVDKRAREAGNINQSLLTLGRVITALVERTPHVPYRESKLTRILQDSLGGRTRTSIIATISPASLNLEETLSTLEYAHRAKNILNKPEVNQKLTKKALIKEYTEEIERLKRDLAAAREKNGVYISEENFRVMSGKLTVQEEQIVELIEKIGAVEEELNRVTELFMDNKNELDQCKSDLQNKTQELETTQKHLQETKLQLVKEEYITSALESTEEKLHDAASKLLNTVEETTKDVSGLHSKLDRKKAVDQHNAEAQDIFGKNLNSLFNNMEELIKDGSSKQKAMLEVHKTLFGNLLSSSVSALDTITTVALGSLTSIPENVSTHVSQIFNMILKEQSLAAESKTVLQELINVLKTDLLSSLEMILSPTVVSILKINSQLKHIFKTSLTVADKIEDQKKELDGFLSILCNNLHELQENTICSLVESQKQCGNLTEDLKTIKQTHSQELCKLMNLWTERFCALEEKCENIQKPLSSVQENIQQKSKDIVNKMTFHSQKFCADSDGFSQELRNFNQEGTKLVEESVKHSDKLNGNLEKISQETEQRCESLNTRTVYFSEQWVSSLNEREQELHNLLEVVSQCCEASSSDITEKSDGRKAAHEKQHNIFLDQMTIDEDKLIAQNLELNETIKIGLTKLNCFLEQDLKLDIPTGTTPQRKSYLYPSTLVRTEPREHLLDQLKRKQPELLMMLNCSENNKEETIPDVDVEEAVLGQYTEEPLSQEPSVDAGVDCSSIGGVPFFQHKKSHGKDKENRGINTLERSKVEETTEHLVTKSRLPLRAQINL

[7] = tested on: WI-38; experiment: Antimitotic activity against human non-transformed WI38 cells assessed as monoastral spindle formation at 5 uM after 1 day; type: functional
[8] = tested on: SK-MEL-5; experiment: Cytotoxicity against human SK-MEL-5 cells; type: functional
[9] = tested on: IGROV-1; experiment: Cytotoxicity against human IGROV1 cells; type: functional
[10] = Potentiation of doxorubicin-induced cytotoxicity against human A2780/DX3 cells after 16 hrs; type: functional
[11] = Antiplatelet activity in rabbit platelets assessed as inhibition of arachidonic acid-induced platelet aggregation; type: functional, cell-based, Oryctolagus cuniculus
[12] = Antiplatelet activity in rabbit platelets assessed as inhibition of collagen-induced platelet aggregation; type: functional, cell-based, Oryctolagus cuniculus
[13] = tested on: Mus musculus; experiment: Antiinflammatory activity in mouse assessed as inhibition of edema formation; type: functional
[14] = Toxicity in rat; type: organism-based; settings: in vivo, read-out: ALD50
[15] = species: Rattus norvegicus; experiment: Anticonvulsant activity in rat assessed as inhibition of seizures; type: functional
[16] = Oryctolagus cuniculus, Platelet

NCCCCN1c2ccccc2Sc2ccc(C(F)(F)F)cc21
MIC [1]: 1.5 µg/mL (≈ 4.43 µM)
MIC [2]: 0.4 µg/mL (≈ 1.18 µM)

O=C(NCCCl)NCCCCN1c2ccccc2Sc2ccc(Cl)cc21
CC50 [3]: 5700 nM
GI50 [4]: 1400 nM

OC(CNCCc1ccccc1)CN1c2ccccc2Sc2ccc(Cl)cc21 (stereo unspecified)
viability at 5 µM [5]: 90%
IC50 [6]: 1520 nM
Activity [7]: 90%

O=C(NCCCl)NCCN1c2nc3ccccc3cc2Sc2cc3ccccc3nc21
GI50 [8]: 88 nM

CCN(CC)CCN1c2nc3ccccc3cc2Sc2cc3ccccc3nc21
GI50 [9]: 190 nM

O=C(CSCC1CCCN2CCCCC12)N1c2ccccc2Sc2ccc(Cl)cc21 (stereo unspecified)
fold change (FC) [10]: 3.96

O=C(CSCC1CCCN2CCCCC12)N1c2ccccc2Sc2ccc(C(F)(F)F)cc21 (stereo unspecified)
fold change (FC) [10]: 3.96

COc1ccc2c(c1)N(C(=O)CCSCC1CCCN3CCCCC13)c1ccccc1S2 (stereo unspecified)
fold change (FC) [10]: 3.96

CN(C)c1ccc(/C=N/NC(=O)N2c3ccccc3Sc3ccccc32)cc1
inhibition (INH) [11]: 100%
inhibition (INH) [12]: 100%
inhibition (INH) [13]: 20.5%

O=C(O)c1ccc(/C=N/NC(=O)N2c3ccccc3Sc3ccccc32)cc1
inhibition (INH) [11]: 100%
inhibition (INH) [12]: 100%
inhibition (INH) [13]: 51%

O=C(N/N=C/c1ccccc1)N1c2ccccc2Sc2ccccc21
IC50 [11, 16]: 2300 nM
IC50 [12, 16]: 2300 nM

NNC(=O)N1c2ccccc2Sc2ccccc21
inhibition (INH) [11]: 100%
inhibition (INH) [12]: 100%

O=C(N/N=C/C1CCCO1)N1c2ccccc2Sc2ccccc21 (stereo unspecified)
inhibition (INH) [11]: 100%
inhibition (INH) [12]: 100%

O=C(N/N=C/C1CCCS1)N1c2ccccc2Sc2ccccc21 (stereo unspecified)
inhibition (INH) [11]: 100%
inhibition (INH) [12]: 100%

O=C1NC(=O)C(CNc2nnc(CN3c4ccccc4Sc4ccccc43)o2)C(=O)N1
LD50 [14]: 1000 mg/kg
inhibition (INH) [15]: 80%

O=C1NC(=S)NC(=O)C1CNc1nnc(CN2c3ccccc3Sc3ccccc32)s1
LD50 [14]: 1000 mg/kg
inhibition (INH) [15]: 80%

O=C1N=C([O-])NC1(c1ccccc1)c1ccccc1.[Na+] [PHENYTOIN SODIUM]
LD50 [14]: 1000 mg/kg
